Assay results: patent US20190307843A1, “SINGLE DOSE METHODS FOR PREVENTING AND TREATING FUNGAL INFECTIONS” (Cidara Therapeutics, Inc., priority 2016, published 2019)
Starred links: 1 amine or outer side, 2 acyl side, 3 side chain; linkers in the order of their positions; H or OH if unused. Positions of bridges follow the written chain, without caps; N, C: chain ends. Non-standard residues stand in square brackets, D forms with d. Residues, ends and D or L forms follow the SMILES beside them. *: point of attachment. Orn(4R-OH,5R-OCH2CH2NMe3+) = C[N+](C)(C)CCO[C@@H](N[*:3])[C@H](O)C[C@H](N[*:1])C(=O)[*:2]; pTerphenylCO(4''-OnC5H11) = CCCCCOc1ccc(-c2ccc(-c3ccc(C(=O)*)cc3)cc2)cc1; hTyr(3S-OH,4S-OH) = N[C@H](C(=O)O)[C@H](O)[C@@H](O)c1ccc(O)cc1; Pro(3S-OH,4S-Me) = C[C@H]1CN[C@H](C(=O)O)[C@H]1O; Hyp = O=C(O)[C@@H]1C[C@@H](O)CN1

How the values were obtained:
[1] = test system: A. fumigatus clinical isolates; assay: CLSI broth microdilution (M38-A2) MEC, SENTRY clinical isolates; type: cell-based, Aspergillus fumigatus; settings: 153 A. fumigatus clinical isolates, 2014 and 2015
Text: The in vitro activity of CD101 was previously evaluated as part of the SENTRY international surveillance program using CLSI broth microdilution methodology (M38-A2, M27-A3; Pfaller, et al 2017). […] These susceptibility data were then compared graphically to CD101 plasma concentrations from studies in healthy adults, adjusted for plasma protein binding. Nonclinical efficacy in a murine model of Pneumocystis pneumonia were also considered to evaluate CD101 doses for clinical investigation of antifungal prophylaxis.
The in vitro activity of CD101 was evaluated against 153 A. fumigatus clinical isolates collected as part of the 2014 and 2015 JMI international SENTRY surveillance program. Susceptibility was determined by measuring the minimal effective concentration (MEC) values in accordance with CLSI broth microdilution guidelines (M38-A2). In vivo tissue distribution of CD101 in SD rats (N=3/time up to 5 d) after a 5 mg/kg IV CD101 dose. Plasma/tissue concentrations were measured by LC-MS/MS.

[2] = test system: Candida albicans ATCC SC5314; assay: MIC used for free drug plasma concentration over MIC, candidiasis model; type: cell-based
[3] = test system: Candida albicans clinical isolates; settings: SENTRY, Pfaller, et al 2017; cited from earlier work
[4] = test system: C. albicans SC-5314 biofilms; assay: Time lapse microscopy of biofilm formation; type: cell-based, Candida albicans; settings: CD101 0.25 μg/ml; 0 h up to 16 h
Text: The effective CD101 concentration obtained from the above experiments was used to monitor its effect on biofilm formation in real time using TLM, which involves capturing real-time images of a single frame at specific time intervals, allowing temporal monitoring of the interactions occurring between the drug and Candida biofilms. Captured images were combined in a time sequence, resulting in an animation depicting the sequence of events that occurred with the passage of time. Briefly, the discs with C. albicans (adhered for 90 min as above) were placed in a 35-mm-diameter glass-bottom Petri dish (MatTek Corp., Ashland, Mass.). […] Phase contrast images for this interaction were captured immediately from 0 h and followed up to 16-17 h on a Leica DMI 6000 B inverted microscope connected to a Retiga EXi Aqua camera (Q-imaging Vancouver British Columbia). To determine the structural changes in the maturing biofilm, both acquisition and analysis of a series of horizontal (xy) optical sections of the biofilm was done using Metamorph Imaging software (Molecular Devices, Downington, Pa.). Disc incubated with media alone was used as control.

C. parapsilosis = assay: Neutropenic murine disseminated candidiasis model, PK/PD targets, C. parapsilosis
Candida albicans (R357) = assay: Neutropenic mouse model of azole-resistant candidiasis, kidney CFU; type: in vivo; settings: CD101 3 mg/kg single IP dose, 72 hours
aspergillosis = assay: Human subject with aspergillosis, single oral dose (Example 4); type: in vivo; settings: single dose of 50 mg-1200 mg acetate salt of CD101, oral formulation
Procedure: A human subject is diagnosed with aspergillosis using standard diagnostic procedures. The subject receives treatment with a single dose of 50 mg-1200 mg (e.g., 75±25 mg, 100±25 mg, 150±50 mg, 200±50 mg, 250±50 mg, 300±50 mg, 350±50 mg, 400±50 mg, 450±50 mg, 500±100 mg, 600±100 mg, 700±100 mg, 800±100 mg, 900±50 mg, 1000 mg±100 mg, or 1100±100 mg) of the acetate salt of CD101 administered in an oral formulation (e.g., in a pill, capsule, or liquid formulation). No other antifungal treatment is provided to the subject within one to three weeks before or after administration of the single dose CD101 treatment.

C. glabrata = assay: In vitro susceptibility testing (CLSI M27-A3), C. glabrata; type: cell-based, Candida glabrata; settings: Nakaseomyces glabratus, 24 h
Procedure: Ten clinical Candida strains were used for the in vivo treatment studies, including four C. albicans, three C. glabrata, and three C. parapsilosis strains (Table 15). This group was selected to encompass phenotypic variability in susceptibility to triazoles and echinocandins and based on similar fitness in the animal model as defined by the amount of growth in control animals over 24 h. The organisms were maintained, grown, and quantified on Sabouraud's dextrose agar (SDA) plates.
In vitro susceptibility testing. All isolates were tested in accordance with the standards in CLSI document M27-A3. The MICs were determined visually after 24 h of incubation as the lowest concentration of drug that causes a significant diminution (50%) of growth compared to controls. MICs were determined on three separate occasions in duplicate.

[5] = Protein binding by ultracentrifugation, mouse plasma; type: in vitro ADME; settings: read-out: percent of bound CD101, mean (protein binding) (converted)
Procedure: Concentrations in plasma ranging from 7 to 60 μg/mL were tested and resulting samples were analyzed by LC-MS/MS.

CCCCCOc1ccc(-c2ccc(-c3ccc(C(=O)N[C@H]4C[C@@H](O)[C@@H](OCC[N+](C)(C)C)NC(=O)[C@@H]5[C@@H](O)[C@@H](C)CN5C(=O)[C@H]([C@@H](C)O)NC(=O)[C@H]([C@H](O)[C@@H](O)c5ccc(O)cc5)NC(=O)[C@@H]5C[C@@H](O)CN5C(=O)[C@H]([C@@H](C)O)NC4=O)cc3)cc2)cc1 [CD101] ({pTerphenylCO(4''-OnC5H11)}-[Orn(4R-OH,5R-OCH2CH2NMe3+)]T[Hyp][hTyr(3S-OH,4S-OH)]T[Pro(3S-OH,4S-Me)]; lactam 1-C)
MEC50 [1]: 0.015 µg/mL
MEC90 [1]: 0.015 µg/mL
MEC range [1]: ≤0.0078 to 0.03 µg/mL
MIC [2]: 0.03 µg/mL
MIC90 [3]: 0.06 µg/mL
biofilm formation in real time [4]: only adhered cells with stunted growth, which failed to grow into mature biofilms
median stasis 24 h free drug AUC/MIC target (C. parapsilosis; C. parapsilosis): 2.61
Stasis 24 h Ave free drug AUC/MIC (C. parapsilosis; C. parapsilosis 20423.072): 1.39
Stasis free drug AUC0-168h/MIC (C. parapsilosis; C. parapsilosis 20423.072): 9.74
Stasis total drug AUC0-168h/MIC (C. parapsilosis; C. parapsilosis 20423.072): 1217.49
Static dose (C. parapsilosis; C. parapsilosis 20423.072): 9.62 mg/kg
Stasis 24 h Ave free drug AUC/MIC (C. parapsilosis; C. parapsilosis 20477.048): 3.82
Stasis free drug AUC0-168h/MIC (C. parapsilosis; C. parapsilosis 20477.048): 26.72
Stasis total drug AUC0-168h/MIC (C. parapsilosis; C. parapsilosis 20477.048): 3339.42
Static dose (C. parapsilosis; C. parapsilosis 20477.048): 52.96 mg/kg
median stasis free drug AUC0-168/MIC target (C. parapsilosis; C. parapsilosis (only two strains achieved the endpoint)): 18.2
reduction in C. albicans CFU compared with vehicle (Candida albicans (R357)): > 3 log
aspergillosis infection at follow-up visit (aspergillosis): confirmed to be resolved
MIC (C. glabrata; C. glabrata 5592): 0.125 µg/mL
MIC (C. glabrata; C. glabrata 10956): 1 µg/mL
MIC (C. glabrata; C. glabrata 35315): 0.5 µg/mL
fraction unbound at 2.5 hr [5]: 0.008
